Experimental data from patent US4782070A, “Cerebral dysfunction therapeutic agent, which comprises a dihydropyridine compound” (Fujisawa Pharmaceutical Co., Ltd., priority 1986, dated 1988).

Legend:
[1] = tested on: vertebral artery of dog; test: Effect on blood flow of the vertebral artery of dog; assay type: in vivo, Mongrel dogs
Experimental: Mongrel dogs of either sex (5-10 dogs per group), weighing 8-18 kg, were anesthetized with pentobarbital sodium (35 mg/kg, ip) and an electromagnetic flowprobe was fitted to the right vertebral artery and the blood flow of the vertebral artery was measured by a flow meter. Polyethylene cannulae were inserted into the femoral artery for measurement of blood pressure and into the femoral vein or the duodenum (after celiotomy) for administration of test compounds respectively.
Test compounds were dissolved in a mixture of ethanol, polyethylene glycol and distilled water, and administered in a volume of 0.2 ml/kg (iv) or 0.5 ml/kg (id). Incidentally, dogs were fasted for 18 hours in case of intraduodenum administration.

[2] = tested on: Production of Lipid Peroxide in cerebral mitochondria of rat; test: Effect on Production of Lipid Peroxide in cerebral mitochondria of rat; assay type: biochemical, male Wistar rats; conditions: 37° C., 1 hour
Experimental: Cerebral mitochondria of male Wistar rats were isolated and mixed with a mixture of ascorbic acid (100 μM), ferrous sulfate (10 μM), ferric sulfate (20 μM) and test compound, and the mixture was incubated at 37° C. for 1 hour. The amount of malondialdehyde produced in the incubated mixture was measured by thiobarbituric acid method [Shimada et al., Biochim. Biophy. Acta, vol. 489, pp 163-172 (1977)].

[3] = tested on: basilar artery; test: Remitting effect on a model of vasospasm after subarachnoid hemorrhage; assay type: in vivo, Mongrel cats; conditions: femoral vein
Experimental: Mongrel cats of either sex (3-5 cats per group) were anesthetized with pentobarbital sodium (60 mg/kg, sc) and tracheal cannulae were inserted, and the test was carried out under spontaneous respiration. Following transcervical, transclival approach, the canine basilar artery was exposed by opening the dura and arachnoid maters, using an operating microscope. 30 Minutes after the surgery, a mixture of an equal volume of blood and cerebrospinal fluid (CSF) (0.2 ml) preincubated under an aseptic condition (37° C., 6-7 days) was applied on the surface of canine basilar artery. At the same time, the test compound [dissolved in a mixture of ethanol, polyethylene glycol and distilled water (2:1:7, v/v/v), administration volume: 0.2 ml] or only vehicle was administered into the right femoral vein. After 10 minutes, the blood-CSF mixture was carefully removed and microphotographs of the canine basilar artery were taken with the passage of time, and the inside diameter of the artery was measured from the microphotographs.

[4] = tested on: ischemic cerebral cortex of rat; test: Effect on blood flow in ischemic cerebral cortex of rat; assay type: in vivo, Male Wistar rats; conditions: po; for Increase in Blood Flow (Time-course of Vasodilation in Cortex of Occlusion Side): 1 mg/kg
Experimental: Male Wistar rats (5 rats per group), weighing 229-300 g, were anesthetized with thiopental sodium (50 mg/kg, ip). A skin incision was made in the middle of the right external auditory canal and the orbit, and a craniectomy (diameter: 2-2.5 mm) was made, using a dental drill, in the middle of the foramen ovale and the foramen opticum. After the dura was opened, the middle cerebral artery was exposed and occluded by electrocauterization using bipolar cautery.
After closure of the surgical wound, aminobenzylpenicillin (200 mg/kg) was divisionally administered into the operated part and subcutaneously.
One week after the surgery, the rats were anesthetized with urethane (1.25 g/kg, sc) and cannulae for artificial respiration and for measurement of blood pressure were inserted into the trachea and into the right femoral artery respectively, and then a stomach tube for administration of test compounds was inserted into stomach. The rats were fixed to stereotactic head-holders and craniectomies (diameter: 0.5 mm) were made on both sides of parietal skull, and then electrodes for measurement of local cerebral blood flow were inserted into right and left cerebral cortex (A=5, L=±5.0, H=2).
The blood flows of the ischemic (occlusion side) and non-ischemic (non-occlusion side) cerebral cortex of the rats used in this test were 17.4±4.5 and 51.4±1.2 ml/brain 100 g/minute, respectively. Test Compounds were dissolved in 100% polyethylene glycol and administered orally in a volume of 1 ml/kg.
The blood flow was calculated according to the following calculating formula after obtaining a half life (t1/2) from the clearance curve. [formula] λ: partition coefficient of hydrogen gas between blood and tissues (=1.0)
t1/2: a half life of concentration of hydrogen gas in brain

[5] = tested on: isolated canine basilar artery; test: Effect on isolated canine basilar artery (relaxation of KCl contraction); design: species or system mongrel dogs; conditions: Canis lupus familiaris; dose inducing 50% relaxation; contraction by 35 mM KCl; papaverine 0.1 mM = 100%; mean±standard error; read-out: ED50 (the source's name)
Experimental: Under pentobarbital sodium anesthesia (35 mg/kg, ip or 30 mg/kg, iv), the basilar arteries (outside diameter: 1.0-1.5 mm) were isolated from mongrel dogs (weighing 8-18 kg) of either sex (6 dogs per group) and cut spirally (width 1 mm×length 15-20 mm). The spiral strips were suspended in a Tyrode's solution aerating with a gas mixture of 95% oxygen and 5% carbon dioxide, and the resting tension was adjusted to 0.5 g. After 1 hour, 35 mM potassium chloride was added to the organ bath to contract the arteries. The cumulative concentrations of the test compound, dissolved in a mixture of ethanol, polyethylene glycol and distilled water, were then added. Finally 0.1 mM papaverine was given to determine maximum relaxation.

[6] = tested on: cerebral circulation; conditions: cited from earlier work
[7] = tested on: ischemic brain; conditions: Occluded rat, 1.0 mg/kg sc once a day for 3 days
Experimental: Test compounds (1.0 mg/kg) (dissolved in polyethylene glycol, administration volume: 1 ml/kg) or vehicle was administered sc once a day for 3 days beginning from the fifth day after the surgery. One hour after the last administration, the rats were frozen in liquid nitrogen and then the whole brains of the both side excluding the cerebellum were isolated separately. The right hemisphere was homogenized with ice-cooled 6% perchloric acid (20 times in volume), centrifuged (3000 r.p.m., 10 minutes at 4° C.) and then the supernatant was neutralized with 5M potassium carbonate.
After the neutralization, the supernatant was centrifuged again and the concentrations of adenosine triphosphate (ATP) and lactic acid included in the resulting supernatant were measured by enzymatic assay.

[8] = tested on: rat with transient cerebral ischemia; conditions: cited from earlier work

| SMILES | Time-course of Changes of Blood Flow ([1]; 32 μg/kg, iv, 5 minutes) [%] | Time-course of Changes of Blood Flow ([1]; 32 μg/kg, iv, 10 minutes) [%] | Time-course of Changes of Blood Flow ([1]; 32 μg/kg, iv, 20 minutes) [%] | Time-course of Changes of Blood Flow ([1]; 32 μg/kg, iv, 30 minutes) [%] | Time-course of Changes of Blood Flow ([1]; 32 μg/kg, iv, 60 minutes) [%] | Time-course of Changes of Blood Flow ([1]; 32 μg/kg, iv, 90 minutes) [%] | Time-course of Changes of Blood Flow ([1]; 32 μg/kg, iv, 120 minutes) [%] | Maximum Changes of Blood Flow ([1]; iv, 3.2 μg/kg) [%] | Maximum Changes of Blood Flow ([1]; iv, 10 μg/kg) [%] | Maximum Changes of Blood Flow ([1]; iv, 32 μg/kg) [%] | Increase in Blood Flow (Time-course of Vasodilation in Cortex of Occlusion Side) ([4]; 15 minutes) [%] | Increase in Blood Flow (Time-course of Vasodilation in Cortex of Occlusion Side) ([4]; 30 minutes) [%] | Increase in Blood Flow (Time-course of Vasodilation in Cortex of Occlusion Side) ([4]; 45 minutes) [%] | Increase in Blood Flow (Time-course of Vasodilation in Cortex of Occlusion Side) ([4]; 60 minutes) [%] | Increase in Blood Flow (Time-course of Vasodilation in Cortex of Occlusion Side) ([4]; 90 minutes) [%] | Increase in Blood Flow (Time-course of Vasodilation in Cortex of Occlusion Side) ([4]; 120 minutes) [%] | Maximum Increase in Blood Flow ([4]; Non-occlusion side, 0.1 mg/kg) [%] | Maximum Increase in Blood Flow ([4]; Non-occlusion side, 1.0 mg/kg) [%] | Maximum Increase in Blood Flow ([4]; Occlusion side, 0.1 mg/kg) [%] | Maximum Increase in Blood Flow ([4]; Occlusion side, 1.0 mg/kg) [%] | further results |
| --- | --- | --- | --- | --- | --- | --- | --- | --- | --- | --- | --- | --- | --- | --- | --- | --- | --- | --- | --- | --- | --- |
| COC(=O)C1=C(C#N)NC(C)=C(C(=O)OC(C)C)C1c1cccc([N+](=O)[O-])c1 (stereo not drawn) [Dihydropyridine Compound A, Isopropyl ester of 6-cyano-5-methoxycarbonyl-2-methyl-4-(3-nitrophenyl)-1,4-dihydropyridine-3-carboxylic acid] | 109.6 ± 18.3 | 96.7 ± 16.2 | 81.3 ± 15.5 | 77.7 ± 12.5 | 71.2 ± 17.5 | 61.4 ± 25.7 | 52.1 ± 23.1 | 39.2 ± 7.2 | 86.4 ± 20.6 | 109.6 ± 18.3 | 17.8 ± 2.4 | 27.4 ± 3.7 | 32.6 ± 4.6 | 28.3 ± 2.5 | 21.6 ± 6.4 | 17.5 ± 7.3 | 13.6 ± 1.7 | 26.1 ± 4.8 | 12.6 ± 3.1 | 32.6 ± 4.6 | Time-course of Changes of Blood Flow ([1]; 32 μg/kg, iv, 180 minutes): 31.0 ± 15.7%; Maximum Changes of Blood Flow ([1]; id, 10 μg/kg): 17.2 ± 6.0%; Maximum Changes of Blood Flow ([1]; id, 32 μg/kg): 39.7 ± 13.1%; Maximum Changes of Blood Flow ([1]; id, 100 μg/kg): 89.3 ± 11.5%; Inhibition of Production of Lipid Peroxide ([2]; 2.6 × 10^-4 (M)): 100.0%; Inhibition of Production of Lipid Peroxide ([2]; 2.6 × 10^-5 (M)): 96.94 ± 1.03%; Time-course of Changes of the Diameter of the Artery ([3]; 10 μg/kg, 15 minutes): 17.0 ± 4.5%; Time-course of Changes of the Diameter of the Artery ([3]; 10 μg/kg, 30 minutes): 17.1 ± 4.6%; Time-course of Changes of the Diameter of the Artery ([3]; 10 μg/kg, 45 minutes): 18.3 ± 5.3%; Time-course of Changes of the Diameter of the Artery ([3]; 10 μg/kg, 60 minutes): 17.8 ± 3.8%; Time-course of Changes of the Diameter of the Artery ([3]; 10 μg/kg, 90 minutes): 15.5 ± 3.2%; Time-course of Changes of the Diameter of the Artery ([3]; 10 μg/kg, 120 minutes): 17.1 ± 5.1%; Time-course of Changes of the Diameter of the Artery ([3]; 100 μg/kg, 15 minutes): 16.6 ± 7.6%; Time-course of Changes of the Diameter of the Artery ([3]; 100 μg/kg, 30 minutes): 15.1 ± 5.1%; Time-course of Changes of the Diameter of the Artery ([3]; 100 μg/kg, 45 minutes): 25.9 ± 7.5%; Time-course of Changes of the Diameter of the Artery ([3]; 100 μg/kg, 60 minutes): 24.4 ± 7.5%; Time-course of Changes of the Diameter of the Artery ([3]; 100 μg/kg, 90 minutes): 21.6 ± 7.3%; Time-course of Changes of the Diameter of the Artery ([3]; 100 μg/kg, 120 minutes): 25.5 ± 7.9%; EC50 [5]: 0.33 ± 0.04 nM |
| COC(=O)C1=C(C)NC(C)=C(C(=O)OCCN(C)Cc2ccccc2)C1c1cccc([N+](=O)[O-])c1 (stereo not drawn) [Nicardipine, reference compound] | 91.7 ± 14.8 | 73.4 ± 15.2 | 48.1 ± 13.2 | 37.0 ± 10.4 | 23.0 ± 17.7 | 8.2 ± 10.8 | -0.5 ± 8.9 | 31.4 ± 5.2 | 77.8 ± 17.4 | 91.7 ± 14.8 | 6.2 ± 1.8 | 13.4 ± 2.8 | 15.9 ± 2.5 | 11.6 ± 2.9 | 8.8 ± 4.2 | 9.1 ± 5.3 | 8.9 ± 3.2 | 20.5 ± 5.1 | 6.4 ± 1.3 | 15.9 ± 2.5 | duration of improving activity of cerebral circulation [6]: short; improving activity of cerebral circulation [6]: have improving activity of cerebral circulation; Maximum Changes of Blood Flow ([1]; id, 320 μg/kg): 33.7 ± 14.3%; Maximum Changes of Blood Flow ([1]; id, 1000 μg/kg): 56.0 ± 28.5%; Maximum Changes of Blood Flow ([1]; id, 3200 μg/kg): 131.3 ± 36.0%; ATP ([7]; vehicle 1.97 ± 0.06, normal rat 2.38 ± 0.13): 1.92 ± 0.11 μmol/brain 1 g; Lactic acid ([7]; vehicle 3.84 ± 0.28, normal rat 1.83 ± 0.18): 3.84 ± 0.14 μmol/brain 1 g; EC50 [5]: 0.7 ± 0.07 nM |
| COCCOC(=O)C1=C(C)NC(C)=C(C(=O)OC(C)C)C1c1cccc([N+](=O)[O-])c1 (stereo not drawn) [nimodipine] |  |  |  |  |  |  |  |  |  |  |  |  |  |  |  |  |  |  |  |  | improving activity of cerebral circulation [6]: have improving activity of cerebral circulation; brain ATP content after reperfusion ([8]; after reperfusion): improves; electroencephalogram after reperfusion ([8]; after reperfusion): improves; electroencephalogram and brain ATP content during ischemia ([8]; during ischemia): not improve them during ischemia; liberation of free fatty acids ([8]; same model): no effect |
